Experimental data published in patent EP0908457B1, “3-(1,2-benzisothiazol- and isoxazol-5-Y1)-2,4(1H,3H)-pyrimidinedione or thione and 3-(1,2-benzisothiazol- and isoxazol-5-y1)-4(3H)-pyrimidinone or thione herbicidal agents” (BASF AKTIENGESELLSCHAFT, priority 1997, dated 1999).

Key:
[1] = system: Echinochloa oryzoides (Ard.) Fritsch.; experiment: Preemergence weed control under flooded paddy conditions, ECHORC (Watergrass (Calif.)); format: in vivo; conditions: flooded paddy; on herbicidal effect rating, ECHORC: meaning of each grade not given here
[2] = system: Cyperus iria; experiment: Preemergence weed control under flooded paddy conditions, CYPIR (Rice Flatsedge); format: in vivo; conditions: flooded paddy; on herbicidal effect rating, CYPIR: meaning of each grade not given here
[3] = system: Cyperus serotinus, Rottb.; experiment: Preemergence weed control under flooded paddy conditions, CYPSE (Flatsedge); format: in vivo; on herbicidal effect rating, CYPSE: meaning of each grade not given here
[4] = system: Monochoria vaginalis, Presl.; experiment: Preemergence weed control under flooded paddy conditions, MOOVA (Monochoria); format: in vivo; conditions: flooded paddy; on herbicidal effect rating, MOOVA: meaning of each grade not given here
[5] = system: Sagittaria pygmaea, L.; experiment: Preemergence weed control under flooded paddy conditions, SAGPY (Arrowhead (Pygmaea)); format: in vivo; conditions: flooded paddy; on herbicidal effect rating, SAGPY: meaning of each grade not given here
[6] = system: Oryza sativa, (L.) Tebonnet; experiment: Rice tolerance to post-transplant applications under flooded paddy conditions (Example 187), ORYSAT (Rice, Tebonnet); on herbicidal effect rating ORYSAT: meaning of each grade not given here
[7] = Rate 0.0320 kg/ha, preemergence, rated three to four weeks after treatment
[8] = Rate 0.0620 kg/ha, preemergence, rated three to four weeks after treatment
[9] = Rate 0.1250 kg/ha, preemergence, rated three to four weeks after treatment
[10] = Rate 0.2500 kg/ha, preemergence, rated three to four weeks after treatment
[11] = Rate 0.0320 kg/ha, rated three to four weeks after treatment
[12] = Rate 0.0620 kg/ha, rated three to four weeks after treatment
[13] = Rate 0.1250 kg/ha, rated three to four weeks after treatment
[14] = Rate 0.2500 kg/ha, rated three to four weeks after treatment
[15] = Rate 0.0320 kg/ha, preemergence, rated 3-4 weeks after treatment
[16] = Rate 0.0620 kg/ha, preemergence, rated 3-4 weeks after treatment
[17] = Rate 0.1250 kg/ha, preemergence, rated 3-4 weeks after treatment
[18] = Rate 0.2500 kg/ha, preemergence, rated 3-4 weeks after treatment
[19] = Rate 0.0320 kg/ha, rated 3-4 weeks after treatment
[20] = Rate 0.0620 kg/ha, rated 3-4 weeks after treatment
[21] = Rate 0.1250 kg/ha, rated 3-4 weeks after treatment
[22] = Rate 0.2500 kg/ha, rated 3-4 weeks after treatment
[23] = 0.0320 kg/ha, preemergence, rated three to four weeks after treatment
[24] = 0.0620 kg/ha, preemergence, rated three to four weeks after treatment
[25] = 0.1250 kg/ha, preemergence, rated three to four weeks after treatment
[26] = 0.2500 kg/ha, preemergence, rated three to four weeks after treatment
[27] = Rate 0.0320 kg/ha, preemergence weeds, rated three to four weeks after treatment
[28] = Rate 0.0620 kg/ha, preemergence weeds, rated three to four weeks after treatment
[29] = Rate 0.1250 kg/ha, preemergence weeds, rated three to four weeks after treatment
[30] = Rate 0.2500 kg/ha, preemergence weeds, rated three to four weeks after treatment

CCSCCOC(=O)c1nsc2ccc(-n3c(=O)cc(C(F)(F)F)n(C)c3=O)cc12 [Example 385, 1,2-Benzisothiazole-3-carboxylic acid, 5-[3,6-dihydro-3-methyl-2,6-dioxo-4-(trifluoromethyl)-1(2H)-pyrimidinyl]-, 2-(ethylthio)ethyl ester]
5.0: herbicidal effect rating ORYSAT [6, 12]
3.0: herbicidal effect rating, ECHORC [1, 8] | herbicidal effect rating, ECHORC [1, 9] | herbicidal effect rating ORYSAT [6, 11]
0.0: herbicidal effect rating, ECHORC [1, 7] | herbicidal effect rating, SAGPY [5, 7] | herbicidal effect rating, SAGPY [5, 8]
6.0: herbicidal effect rating, ECHORC [1, 10] | herbicidal effect rating, CYPIR [2, 8] | herbicidal effect rating, CYPIR [2, 9] | herbicidal effect rating, CYPSE [3, 7] | herbicidal effect rating, CYPSE [3, 8]
7.0: herbicidal effect rating, CYPSE [3, 9] | herbicidal effect rating, CYPSE [3, 10] | herbicidal effect rating ORYSAT [6, 13] | herbicidal effect rating ORYSAT [6, 14]
9.0: herbicidal effect rating, CYPIR [2, 10] | herbicidal effect rating, MOOVA [4, 7] | herbicidal effect rating, MOOVA [4, 8] | herbicidal effect rating, MOOVA [4, 9] | herbicidal effect rating, MOOVA [4, 10] | herbicidal effect rating, SAGPY [5, 9] | herbicidal effect rating, SAGPY [5, 10]
4.0: herbicidal effect rating, CYPIR [2, 7]

COCCCOCCCOC(=O)COc1ccc(C)cc1-c1nsc2ccc(-n3c(=O)cc(C(F)(F)F)n(C)c3=O)cc12 [Example 523, Acetic acid, {{2-{5-[3,6-dihydro-3-methyl-2,6-dioxo-4-(trifluoromethyl)-1(2H)-pyrimidinyl]-1,2-benzisothiazol-3-yl}-p-tolyl}oxy}-, 3-(3-methoxypropoxy)propyl ester]
5.5: herbicidal effect rating ORYSAT [6, 21]
6.0: herbicidal effect rating, ECHORC [1, 15]
4.0: herbicidal effect rating, CYPIR [2, 17]
9.0: herbicidal effect rating, ECHORC [1, 18] | herbicidal effect rating, CYPSE [3, 18] | herbicidal effect rating, MOOVA [4, 16] | herbicidal effect rating, MOOVA [4, 17] | herbicidal effect rating, MOOVA [4, 18]
4.5: herbicidal effect rating ORYSAT [6, 19] | herbicidal effect rating ORYSAT [6, 20]
2.0: herbicidal effect rating, CYPIR [2, 16] | herbicidal effect rating, CYPSE [3, 17]
8.0: herbicidal effect rating, ECHORC [1, 16] | herbicidal effect rating, ECHORC [1, 17] | herbicidal effect rating, CYPIR [2, 18] | herbicidal effect rating, MOOVA [4, 15]
7.0: herbicidal effect rating ORYSAT [6, 22]
0.0: herbicidal effect rating, CYPIR [2, 15] | herbicidal effect rating, CYPSE [3, 15] | herbicidal effect rating, CYPSE [3, 16] | herbicidal effect rating, SAGPY [5, 15] | herbicidal effect rating, SAGPY [5, 16] | herbicidal effect rating, SAGPY [5, 17] | herbicidal effect rating, SAGPY [5, 18]

C=CCOc1c(I)cc(C)cc1-c1nsc2ccc(-n3c(=O)cc(C(F)(F)F)n(C)c3=O)cc12 [Example 505, 2,4(1H,3H)-Pyrimidinedione, 3-{3-[6-(allyloxy)-5-iodo-m-tolyl]-1,2-benzisothiazol-5-yl}-1-methyl-6-(trifluoromethyl)-]
8.0: MOOVA herbicidal rating [4, 26]
4.0: CYPIR herbicidal rating [2, 26] | SAGPY herbicidal rating [5, 26] | ORYSAT herbicidal rating (rice tolerance) ([6]; 0.0320 kg/ha, rated three to four weeks after treatment) | ORYSAT herbicidal rating (rice tolerance) ([6]; 0.0620 kg/ha, rated three to four weeks after treatment) | ORYSAT herbicidal rating (rice tolerance) ([6]; 0.1250 kg/ha, rated three to four weeks after treatment)
9.0: ECHORC herbicidal rating [1, 26]
7.0: ECHORC herbicidal rating [1, 25] | MOOVA herbicidal rating [4, 23] | MOOVA herbicidal rating [4, 24] | MOOVA herbicidal rating [4, 25]
0.0: CYPIR herbicidal rating [2, 23] | CYPSE herbicidal rating [3, 24] | CYPSE herbicidal rating [3, 25] | SAGPY herbicidal rating [5, 23]
6.0: ECHORC herbicidal rating [1, 23] | ECHORC herbicidal rating [1, 24] | ORYSAT herbicidal rating (rice tolerance) ([6]; 0.2500 kg/ha, rated three to four weeks after treatment)
3.0: CYPIR herbicidal rating [2, 25]
2.0: SAGPY herbicidal rating [5, 24] | SAGPY herbicidal rating [5, 25]

Cn1c(C(F)(F)F)cc(=O)n(-c2ccc3snc(/C=C/C(=O)c4ccccc4)c3c2)c1=O [Example 564, 2,4(1H,3H)-Pyrimidinedione, 1-methyl-3-[3-(3-oxo-3-phenylpropenyl)-1,2-benzisothiazol-5-yl]-6-(trifluoromethyl)-, (E)-]
9.0: herbicidal effect rating, CYPIR [2, 18] | herbicidal effect rating, MOOVA [4, 15] | herbicidal effect rating, MOOVA [4, 16] | herbicidal effect rating, MOOVA [4, 17] | herbicidal effect rating, MOOVA [4, 18]
0.0: herbicidal effect rating, CYPSE [3, 15] | herbicidal effect rating, CYPSE [3, 16] | herbicidal effect rating, CYPSE [3, 17] | herbicidal effect rating, SAGPY [5, 15] | herbicidal effect rating, SAGPY [5, 16] | herbicidal effect rating, SAGPY [5, 17] | herbicidal effect rating, SAGPY [5, 18] | herbicidal effect rating ORYSAT [6, 19] | herbicidal effect rating ORYSAT [6, 20] | herbicidal effect rating ORYSAT [6, 21] | herbicidal effect rating ORYSAT [6, 22]
5.0: herbicidal effect rating, ECHORC [1, 17]
6.0: herbicidal effect rating, CYPIR [2, 15] | herbicidal effect rating, CYPIR [2, 16]
4.0: herbicidal effect rating, ECHORC [1, 15] | herbicidal effect rating, ECHORC [1, 16] | herbicidal effect rating, CYPSE [3, 18]
7.0: herbicidal effect rating, ECHORC [1, 18] | herbicidal effect rating, CYPIR [2, 17]

CN(C)C(=O)c1nsc2ccc(-n3c(=O)cc(C(F)(F)F)n(C)c3=O)cc12 [Example 329, 1,2-Benzisothiazole-3-carboxamide, 5-[3,6-dihydro-3-methyl-2,6-dioxo-4-(trifluoromethyl)-1(2H)-pyrimidinyl]-N,N-dimethyl-]
9.0: herbicidal effect rating, MOOVA [4, 27] | herbicidal effect rating, MOOVA [4, 28] | herbicidal effect rating, MOOVA [4, 29] | herbicidal effect rating, MOOVA [4, 30]
0.0: herbicidal effect rating, CYPIR [2, 27] | herbicidal effect rating, CYPIR [2, 28] | herbicidal effect rating, CYPIR [2, 29] | herbicidal effect rating, CYPIR [2, 30] | herbicidal effect rating, CYPSE [3, 27] | herbicidal effect rating, CYPSE [3, 28] | herbicidal effect rating, CYPSE [3, 29] | herbicidal effect rating, CYPSE [3, 30]
2.0: herbicidal effect rating, ECHORC [1, 27]
3.0: herbicidal effect rating, ECHORC [1, 28] | herbicidal effect rating, ECHORC [1, 29] | herbicidal effect rating, ECHORC [1, 30] | herbicidal effect rating, SAGPY [5, 27] | herbicidal effect rating ORYSAT [6, 11] | herbicidal effect rating ORYSAT [6, 12] | herbicidal effect rating ORYSAT [6, 13] | herbicidal effect rating ORYSAT [6, 14]
4.0: herbicidal effect rating, SAGPY [5, 28] | herbicidal effect rating, SAGPY [5, 29] | herbicidal effect rating, SAGPY [5, 30]

Cn1c(C(F)(F)F)cc(=O)n(-c2ccc3snc(COCc4ccc(Cl)cc4)c3c2)c1=O [Example 584, 2,4(1H,3H)-Pyrimidinedione, 3-{3-{[(p-chlorobenzyl)oxy]methyl}-1,2-benzisothiazol-5-yl}-1-methyl-6-(trifluoromethyl)-]
4.0: herbicidal effect rating, SAGPY [5, 9]
3.5: herbicidal effect rating ORYSAT [6, 14]
8.0: herbicidal effect rating, MOOVA [4, 8]
9.0: herbicidal effect rating, ECHORC [1, 8] | herbicidal effect rating, ECHORC [1, 9] | herbicidal effect rating, ECHORC [1, 10] | herbicidal effect rating, CYPIR [2, 9] | herbicidal effect rating, CYPIR [2, 10] | herbicidal effect rating, MOOVA [4, 9] | herbicidal effect rating, MOOVA [4, 10]
1.5: herbicidal effect rating, CYPIR [2, 7] | herbicidal effect rating, SAGPY [5, 8]
0.0: herbicidal effect rating, CYPSE [3, 7] | herbicidal effect rating, CYPSE [3, 8] | herbicidal effect rating, CYPSE [3, 10] | herbicidal effect rating, SAGPY [5, 7] | herbicidal effect rating ORYSAT [6, 11]
6.0: herbicidal effect rating, ECHORC [1, 7] | herbicidal effect rating, CYPIR [2, 8]
2.0: herbicidal effect rating, SAGPY [5, 10]
3.0: herbicidal effect rating, MOOVA [4, 7]
1.0: herbicidal effect rating ORYSAT [6, 12] | herbicidal effect rating ORYSAT [6, 13]
